Measurements from US5998487A, “Anti-inflammatory and antibacterial benzyl phenol agents and their use in oral compositions” (Colgate-Palmolive Company, priority 1998, dated 1999).
Converted amounts (≈) assume the structure as drawn. Read-outs that look alike come from different tables or passages of the source.

Key:
A. viscosus = test: MIC (Minimum Inhibitory Concentration) test; type: cell-based; details: for MIC: Actinomyces viscosus, read-out: MIC (Bacterial Minimum Inhibitory Concentration)
Method: The smaller the MIC, the greater the antibacterial activity of the compound being tested.
Using a 96 well microtiter plate, a 100 μl of trypticase soy broth (TSB) media, available from BBL, Cockeysville, Md. 21030, was placed in each of the 12 columns within the plate. Using a octapette pipettor, the 2-t-butyl-4-(4-t-butylbenzyl)-phenol compound was serially diluted to each of the 12 columns, from 125 ppm in the first well of each column, to 0.061 ppm in the 12th (each column containing 1/2 the concentration of 2-t-butyl-4-(4-t-butylbenzyl)-phenol compound than the previous column). To each of the 12 columns an additional 100 μl of TBS was added containing A. viscosus bacterium, a common oral bacteria, at a concentration optical density of 0.1, at 610 nm. The plate was then sealed and incubated for 24 hours at 37° C.
The procedure of Example IV was simultaneously run with water as a negative control and using a known efficacious antibacterial agent, triclosan, as a comparative and positive control. The MIC determined for the triclosan is also recorded in Table III for comparative purposes.

[1] = test system: PGE2 production in Human Embryo Palatal Mesenchyme cells (HEPM, ATCC #1486); test: Inhibition of PGE2 production in IL-1β-stimulated HEPM cells; type: cell-based; details: for IC50: Homo sapiens, read-out: IC50 Concentration to Inhibit 50% of PGE2
Method: Specifically, Human Embryo Palatal Mesenchyme cells (HEPM, ATCC #1486) cells were grown in high glycose Delbeco's Modified Eagles Medium (DMEM, Gibco/BRL-Life Technologies, Grand Island, N.Y.) containing 10% heat inactivated fetal bovine serum (FBS, Gibco/BRL). The cells were grown at 37° C., 100% humidity, and 10% CO2. Prior to analysis, the cells were subcultured into 24 well plates, to form 12 sets of duplicate cultures, and allowed to become 70-90% confluent. On day one of the experiment, the cells were washed three times with serum free media (containing 0.5% bovine serum albumin, BSA), followed by replacement with BSA containing media alone (the negative control) in the first culture set; media and 1.0 ng/mL IL-1β (the positive control, without any inhibitor) in the second culture set; and media, 1.0 ng/mL IL-1β, and a range of from 0.01 μM to 50 μM of 2-t-butyl-4-(4-t-butylbenzyl)-phenol in the third thru twelfth culture sets. Exposure was for 24 hours at which time the media was removed from each well, the media's pH was adjusted to 3.5 with HCl, and the media was analyzed for PGE2 produced using a PerSeptive Diagnostics TiterFluor PGE2 EIA kit, available from PerSeptive Biosystems, Framingham, Mass. 01701.
Prior to determining the PGE2 inhibitory effect of the 2-t-butyl-4-(4-t-butylbenzyl)-phenol compound of the present invention, the results must be normalized with respect to the number of viable cells in each culture well; more or less cells producing correspondingly more or less PGE2. […] Once dissolved, the spectroscopic absorbance of 100 μl of the isopropanol solution from each culture well was determined at 570 nm. A normalization factor, the cell concentration ratio, was calculated for each culture well, by dividing the absorbance of the particular culture well's isopropanol solution by the average absorbance of the unstimulated negative control set's isopropanol solutions. The PGE2 originally determined for each culture well was then normalized by being […] the cell concentration ratio calculated for that particular culture well. […]

COX-2 = target: T1, COX-2 (Homo sapiens, UniProt P35354); test: COX-2 inhibition, oxygen utilization assay; type: biochemical
T1 sequence (P35354 18-604): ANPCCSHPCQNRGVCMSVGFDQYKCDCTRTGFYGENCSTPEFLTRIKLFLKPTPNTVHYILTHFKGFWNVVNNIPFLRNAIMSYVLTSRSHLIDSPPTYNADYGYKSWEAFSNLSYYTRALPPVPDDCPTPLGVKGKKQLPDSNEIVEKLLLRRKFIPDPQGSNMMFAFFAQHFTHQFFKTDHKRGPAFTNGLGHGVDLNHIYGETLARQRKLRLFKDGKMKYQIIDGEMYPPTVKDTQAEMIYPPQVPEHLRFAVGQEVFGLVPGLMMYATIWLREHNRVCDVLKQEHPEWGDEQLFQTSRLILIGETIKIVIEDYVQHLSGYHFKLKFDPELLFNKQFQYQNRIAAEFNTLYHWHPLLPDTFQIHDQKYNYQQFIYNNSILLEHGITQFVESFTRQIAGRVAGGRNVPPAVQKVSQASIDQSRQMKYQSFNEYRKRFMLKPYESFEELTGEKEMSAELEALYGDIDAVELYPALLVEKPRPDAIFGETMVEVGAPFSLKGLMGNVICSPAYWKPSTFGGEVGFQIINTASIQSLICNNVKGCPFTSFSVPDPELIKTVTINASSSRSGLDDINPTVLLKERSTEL
Source text: (§1) The efficacy of the AAB compounds of the present invention as inhibitors of COX-1 and COX-2 enzymes was shown using the oxygen utilization assay described in Dewhirst, Prostaglandins, 22, 209-222 (1980). Varying concentrations of 2-t-butyl-4-(4-t-butylbenzyl)-phenol, a compound of the present invention were selected that inhibit the enzymatic activity from 20% to about 80%, as compared to a positive control, no inhibitor. These varying concentrations of 2-t-butyl-4-(4-t-butylbenzyl)-phenol were independently added to COX-1 and COX-2 enzymes in a closed system, in which the enzymes were reacted in a reaction requiring molecular oxygen. The degree of inhibition of the COX enzyme activity was measured by the reduction in monitored oxygen consumption as a function of time within the closed system. The COX enzyme IC50, concentration of 2-t-butyl-4-(4-t-butylbenzyl)-phenol found to inhibit 50% of the activity of the COX-1 and COX-2 enzymes is recorded in Table II.
(§2) For comparison, the COX enzyme IC50 assay methodology of Example III was repeated using triclosan, an agent known to inhibit PG by inhibiting the production of its COX-1 and COX-2 precursors.

COX-1 = COX-1 (Ovis aries, UniProt P05979); test: COX-1 inhibition, oxygen utilization assay; type: biochemical; details: for IC50: oxygen consumption, read-out: IC50 Conc. to Inhibit 50% of COX-1 Activity
Sequence of COX-1 (P05979 25-600): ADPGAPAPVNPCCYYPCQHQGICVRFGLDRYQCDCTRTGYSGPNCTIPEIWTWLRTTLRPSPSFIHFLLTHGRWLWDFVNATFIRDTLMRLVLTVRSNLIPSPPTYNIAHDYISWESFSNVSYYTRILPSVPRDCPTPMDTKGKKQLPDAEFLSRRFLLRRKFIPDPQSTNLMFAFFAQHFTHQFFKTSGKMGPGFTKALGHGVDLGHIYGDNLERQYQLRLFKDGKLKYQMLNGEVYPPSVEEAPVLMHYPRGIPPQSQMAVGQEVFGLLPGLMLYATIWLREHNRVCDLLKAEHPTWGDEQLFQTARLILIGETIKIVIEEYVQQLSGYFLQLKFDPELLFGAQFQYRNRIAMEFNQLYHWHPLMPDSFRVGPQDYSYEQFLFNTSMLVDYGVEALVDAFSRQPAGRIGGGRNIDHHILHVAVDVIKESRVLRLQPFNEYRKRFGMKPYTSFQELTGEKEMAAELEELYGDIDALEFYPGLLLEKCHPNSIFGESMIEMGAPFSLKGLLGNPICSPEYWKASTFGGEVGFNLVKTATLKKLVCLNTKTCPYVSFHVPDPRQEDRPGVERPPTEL
Source text: as §1, §2

cyclooxygenase = details: EP 0 528 468 A1; cited from earlier work
microbial challenge = details: EP 0 528 468 A1; cited from earlier work
caries = details: hamsters; Stralfors 1967; cited from earlier work

CC(C)(C)c1ccc(Cc2ccc(O)c(C(C)(C)C)c2)cc1 [2-t-butyl-4-(4-t-butylbenzyl)-phenol]
MIC (A. viscosus; A. viscosus, TSB, 24 hours, 37° C.): 0.24 µg/mL (≈ 0.81 µM) | MIC relative to that of triclosan (A. viscosus; vs triclosan, from Table III): about 7% | IC50 ([1]; HEPM cells, 1.0 ng/mL IL-1β, 24 hours, normalized to viable cells (MTT)): 3.7 µM | efficacy as PGE2 inhibitor relative to triclosan ([1]; vs triclosan, from Table I): ~2 times | IC50 (COX-2; oxygen consumption, read-out: IC50 Conc. to Inhibit 50% of COX-2 Activity): 100 µM | efficacy as COX-2 inhibitor relative to triclosan (COX-2; vs triclosan, from Table II): over 2 times | IC50 (COX-1): 17.4 µM | efficacy as COX-1 inhibitor relative to triclosan (COX-1; vs triclosan, from Table II): over 2 times

Oc1cc(Cl)ccc1Oc1ccc(Cl)cc1Cl [Triclosan, 2',4,4'-trichloro-2-hydroxy-diphenyl-ether]
MIC (A. viscosus; 24 h): 3.61 µg/mL (≈ 12.5 µM) | inhibition of cyclooxygenase activity (cyclooxygenase): inhibits cyclooxygenase activity | IC50 ([1]; 24 h): 7 µM | IC50 (COX-2): 229 µM | reduction of microbial challenge (microbial challenge): reduces microbial challenge | IC50 (COX-1): 43 µM

O=C(O)C=Cc1ccc(O)c(O)c1 [caffeic acid, 3,4-dihydroxycinnamic acid]
adverse weight loss (caries): without adverse weight loss | inhibition of caries (caries): inhibit caries

O=C(O)c1ccc(O)c(O)c1 [protocatechuic acid, 3,4-dihydroxybenzoic acid]
adverse weight loss (caries): without adverse weight loss | inhibition of caries (caries): inhibit caries

O=c1c(O)c(-c2ccc(O)c(O)c2)oc2cc(O)cc(O)c12 [quercetin, pentahydroxyflavone]
adverse weight loss (caries): without adverse weight loss
